Assay [1] has as its system aromatase. The assay can be described thus: Assay of aromatase-inhibiting action (in vivo), inhibition of DHEAS-induced cornification of vaginal smear. The following applies: for Inhibition rate (cornification-inhibiting action against cornification in the solvent administration group): mature female rats after enucleation of the pituitary gland, 2 mg/kg test compound orally with 16 mg/kg DHEAS once a day, 4 days, smears of day 3 to 5. On the set-up: species or system rat. The protocol: (2) Assay of aromatase-inhibiting action (in vivo)
Aromatase-inhibiting action was assayed according to the method developed by G. H. Deckers and A. H. W. M. Schuurs (Journal of Steroid Biochemistry,32, 625-631, (1989)).
Namely, groups of mature female rats at one week after enucleation of the pituitary gland were used, each group consisting of 8 to 10 animals. 16 mg/kg of dehydroepiandrosterone sulfate (DHEAS) and 5 ml/kg of a solvent (physiological saline containing 2% polysorbate 80), or DHEAS and 2 mg/kg of a test compound suspended in the solvent were orally administered to each rat once a day for the succeeding 4 days. For 6 days starting from the next day of the first administration, vaginal smear was sampled and observed by a microscope after being stained with Giemsa staining solution. Cornification of the vaginal smear with DHEAS was observed from 3 days after the first administration, and its action disappeared 6 days thereafter. Therefore, the cornification smear number was assumed to be the total of 3 days from the third day to fifth day after the initiation of administration. A cornification-inhibiting action with a test compound was expressed as the rate against cornification in the solvent administration group.
In this connection, the cornification of vaginal smear is caused by estrogens biosynthesized from DHEAS by aromatase, and therefore, when aromatase is inhibited, inhibition of cornification is observed.

Assay [2] has as its target T1, aromatase (Homo sapiens, UniProt P11511).
T1 construct: 150 μg of freeze dried human placental microsome; from tissue; host or cells: human placenta, microsomes
T1 sequence (P11511 1-503): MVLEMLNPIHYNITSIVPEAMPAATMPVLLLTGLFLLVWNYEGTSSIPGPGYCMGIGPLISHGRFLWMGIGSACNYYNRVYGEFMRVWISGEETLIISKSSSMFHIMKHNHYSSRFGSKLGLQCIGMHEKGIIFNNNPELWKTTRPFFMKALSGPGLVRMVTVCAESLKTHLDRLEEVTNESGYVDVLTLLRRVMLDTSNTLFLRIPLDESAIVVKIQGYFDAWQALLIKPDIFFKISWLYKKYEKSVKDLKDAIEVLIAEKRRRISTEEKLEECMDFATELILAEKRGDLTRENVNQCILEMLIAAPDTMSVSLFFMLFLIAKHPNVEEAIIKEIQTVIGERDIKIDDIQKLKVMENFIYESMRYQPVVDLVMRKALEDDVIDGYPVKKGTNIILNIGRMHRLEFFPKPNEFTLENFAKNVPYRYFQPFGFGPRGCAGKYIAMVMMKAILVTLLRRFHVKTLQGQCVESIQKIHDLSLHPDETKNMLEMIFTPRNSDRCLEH
As to the kind of experiment: Assay of aromatase-inhibiting action (in vitro), human placental microsome, 3H2O release from [1,2-3H]androstenedione. The assay is classed as biochemical. The following applies: 2 μM [1,2-3H]androstenedione, 180 μM NADPH, pH 7.5, 37° C., 20 minutes. The method, then: (1) Assay of aromatase-inhibiting action (in vitro)
Human placental microsome (centrifuged at 105,000×g for 60 minutes) was prepared, according to the method of Ryan (The Journal of Biological Chemistry, 234, 268-272, (1959)). The microsome was used after it was washed twice with 0.5 mM dithiothreitol solution, freeze dried, and stored at -20° C.
The aromatase-inhibiting action was assayed according to the method developed by Tompson and Siiteri (Journal of Biological Chemistry, 249, 5373-5378, (1974)). Namely, the method comprises quantitatively determining ^3 H2 O released through aromatization of [1,2-^3 H]androstenedione. The experiment using the enzyme was performed in 67 mM phosphate buffer (pH 7.5) so that the final amount of the incubation solution could be 0.5 ml. The incubation solution contained 180 μM of NADPH, 2μM of [1,2-^3 H]androstenedione, 150 μg of freeze dried human placental microsome, 25 μl of methanol and a test compound in various concentrations. Incubation was performed in the air at 37° C. for 20 minutes, the reaction was terminated with addition of 3 ml of chloroform, and the mixture was stirred for 40 seconds. The mixture was centrifuged at 700×g for 10 minutes, 0.3 ml of the aqueous solution was taken from the supernatant, the scintillation mixture was added, and the amount of ^3 H2 O formed was measured.

Where [3] appears, read: 16 mg/kg DHEAS orally, once a day, rats.

Structures can show the parent of a compound that is named as a salt.

On to `C[C@]12CC[C@H](OS(=O)(=O)O)CC1=CC[C@@H]1[C@@H]2CC[C@]2(C)C(=O)CC[C@@H]12` [DHEAS, dehydroepiandrosterone sulfate, reference compound], for which, in assay [1] (setting [3]), the “Cornification of the vaginal smear with DHEAS observed from (days after the first administration)” value is 3 days and the “disappearance of the cornification action of DHEAS (days thereafter)” value worked out at 6 days. The IC50 is the concentration that gives 50% inhibition. A low value points to inhibition by little substance. In assay [2], `C[C@]12CCC(=O)C=C1C[C@@H](Sc1ccc(N)cc1)[C@@H]1[C@@H]2CC[C@]2(C)C(=O)OCC[C@@H]12` [Example 1, 7α-[(4-aminophenyl)thio]-D-homo-17-oxaandrost-4-ene-3,17a-dione] returned a half-inhibitory concentration (IC50) of 2.3 µM. In assay [2], `C[C@]12CC[C@H]3[C@@H]([C@H](S)CC4=CC(=O)C=C[C@@]43C)[C@@H]1CCOC2` [Example 8, 7α-mercapto-D-homo-17-oxaandrosta-1,4-dien-3-one] displayed an IC50 of 0.4 µM. In addition, the “Inhibition rate (cornification-inhibiting action against cornification in the solvent administration group)” value (“Inhibition rate” for short) in assay [1] is 68.2 ± 13.6%. `C[C@]12C=CC(=O)C=C1C[C@@H](S)[C@@H]1[C@@H]2CC[C@]2(C)C(=O)OCC[C@@H]12` [Example 16, 7α-mercapto-D-homo-17-oxaandrosta-1,4-diene-3,17a-dione] returned an IC50 in assay [2] of 0.5 µM. Besides, the “Inhibition rate” value in assay [1] is 70.6 ± 15.6%. For `CC(=O)S[C@H]1CC(=O)C=C2C[C@@H](SC(C)=O)[C@@H]3[C@H](CC[C@]4(C)C(=O)OCC[C@@H]34)[C@]21C` [Example 43, 1α,7α-bis(acetylthio)-D-homo-17-oxaandrost-4-ene-3,17a-dione], in assay [1], the “Inhibition rate” value is on record as 70.6 ± 15.6%.

For the origin of these results see patent US5539127A, “7-substituted oxa- or azasteroid compound” (Teikoku Hormone Mfg. Co., Ltd., priority 1992, dated 1996).
